Reference: patent publication US20070148660A1, “Treatment of maladaptive substance use with H-ras antagonists” (The Regents of the University of California, priority 2005, published 2007)
Marks after values point to notes of the source that are not given here.

Legend:
[1] = test system: NR2A subunits; conditions: 100 mM ethanol, 15 min, hippocampal slices
Description: (§1) Transverse hippocampal slices ([…]) were prepared from 10- to 12-week-old C57BL/6J mice. Slices were allowed to recover for 90 min in artificial cerebrospinal fluid (aCSF) saturated with 95% O2/5% CO2 containing (in mM): 126 NaCl, 1.2 KCl, 1.2 NaH2PO4, 1.2 MgCl2, 2.4 CaCl2, 18 NaHCO3, and 11 glucose. Following recovery, slices were treated with aCSF (control) or ethanol at room temperature, after which the slices were rinsed in cold aCSF, and used either for cross-linking experiments, for Ras activity assay, or for immunoprecipitation. In experiments using Tat-H-Ras DN or the Tat-peptide, the slices were pretreated with either aCSF (control) or 2 μM Tat-H-Ras DN or Tat-peptide for 2 hrs at room temperature, followed by ethanol treatments.
(§2) Chymotrypsin experiments were performed as described previously (22), with minor modifications. Following recovery, slices were treated with aCSF or 0.5 mg/ml chymotrypsin at 32° C. for 5 min. […] The protein concentration was determined using the BCA assay, followed by SDS-PAGE and Western blot analysis.
(§3) Proteins were separated by SDS-PAGE and blotted onto a nitrocellulose membrane. […] Results were quantified by NIH Image 1.61.

[2] = test system: NR2B; conditions: ethanol, hippocampal slices, data not shown
Description: as §1, §2, §3

[3] = test system: NR2B-adaptin association; conditions: 100 mM ethanol, 15 min, L(-tk) cells NR1+NR2B + PSD-95
Description: (§4) L(−tk) were cultured on 100 mm plates. When cells reached 75% confluency, they were transfected with 5 μg of PSD95-GFP cDNA using LipofectAMINE PLUS in accordance with the manufacturer's instructions. 24 hrs after transfection, the expression of the NMDAR subunits NR1+NR2A or NR1+NR2B was induced with […] dexamethasone in DMEM containing 10% FBS, and 0.5 mM ketamine as previously described (21). After 3 days of induction, the cross-linking or immunoprecipitation studies were conducted. Homogenates were obtained as described in (17).
(§5) The treated slices were homogenized in ice-cold buffer containing 1% deoxycholate, protease and phosphatase inhibitors and (in mM): 250 sucrose, 20 Tris-HCl (pH 7.5), 2 EDTA and 10 EGTA. 500 μg of the protein was diluted with 1× immunoprecipitation buffer (1% Triton X-100 and (in mM): 150 NaCl, 10 Tris HCl (pH 7.4), 1 EDTA, 1 EGTA and 0.2 sodium orthovanadate) and incubated with 5 μg of the appropriate antibody, followed by an overnight incubation at 4° C. with protein G agarose beads. The beads were extensively washed, re-suspended in 2× sample buffer and boiled for 5-10 min. The samples were then subjected to SDS-PAGE followed by Western blotting with the appropriate antibodies.
as §3

[4] = test system: NR2A-adaptin β2 association; conditions: 100 mM ethanol, 15 min, L(-tk) cells NR1+NR2A + PSD-95
Description: as §4, §5, §3

[5] = test system: NMDAR; assay: NMDAR-mediated EPSCs, whole-cell voltage clamp, hippocampal CA1; type: cell-based, mouse; conditions: for slowing of the weighted decay time compared to the control: 80 mM ethanol; for % Fast / τF / τS / τW: double exponential fit; for τW: 0 min 47.4 ms
Description: Electrophysiological recordings were performed in C57BL/6J mice ranging from P21 to P26. Briefly, mice were anesthetized with halothane and decapitated as per University of California, San Francisco animal care guidelines. Horizontal sections of the hippocampus ([…]) were prepared with a vibratome (Leica, Nussloch, Germany). Slices were placed in a holding chamber and allowed to recover for at least 1 hr before being placed in the recording chamber and superfused with aCSF saturated with 95% O2/5% CO2 and containing (in mM): 119 NaCl, 1.6 KCl, 1.0 NaH2PO4, 1.3 MgCl2 (for EPSCs) or 0.01 MgCl2 (for field excitatory postsynaptic potentials (fEPSPs)), 2.5 CaCl2, 26.2 NaHCO3 and 11 glucose. Picrotoxin (100 μM) was added to block gamma-aminobutyric acid-A (GABAA) receptor-mediated inhibitory synaptic transmission, and CNQX (for EPSCs) or NBQX (for fEPSPs) (10 μM) was added to block α-amino-3-hydroxy-5-methyl-4-isoxalepropionate (AMPA)/Kainate receptors. Cells were visualized using infrared differential interference contrast video microscopy.
Whole-cell voltage clamp-recordings were made using an Axopatch ID or a MultiClamp 700A amplifier (Axon Instruments, Union City, Calif.). Electrodes (3.5-5.0 MΩ) contained (in mM): 120 Cesium methansulfonate, 20 HEPES, 0.4 EGTA, 2.8 NaCl, 5 TEA-Cl, 2.5 MgATP, and 0.25 NaGTP (pH 7.2-7.3), buffer at 270-285 mOsm. Series resistance (10-30 MΩ) and input resistance were monitored on-line with a 4 mV depolarizing step (50 ms) given just after every afferent stimulus. Recordings from the CA1 region of the hippocampus were obtained with a bipolar stimulating electrode that was placed 100-300 μm rostral to the recording electrode and was used to stimulate excitatory afferents at 0.1 Hz. Neurons were voltage-clamped at +40 mV to evoke NMDAR-mediated EPSCs. At this potential, NMDARs have a maximal open probability and the Mg^2+ block is removed. EPSCs were filtered at 2 kHz, digitized at 5-10 kHz and collected on-line using Igor Pro software (Wavemetrics, Lake Oswego, Oreg.) or pClamp 9 (Axon Instruments, Union City, Calif.). NMDAR example traces were constructed by averaging 20 EPSCs (200 sec) elicited at +40 mV during baseline, ethanol application, drug application or drug application with ethanol. To calculate the decay time (τ), Igor Pro software was used to fit exponential decay curves to averaged NMDAR-mediated EPSCs using the formula: y=A1exp(−invTau1*x)+A2exp(−invTau2X).

[6] = 15 min exposure to ethanol (80 mM), n=6
[7] = 30 min exposure to ethanol (80 mM), n=6

## CCO [ethanol]
[1]
  internalization of the NR2A subunits (chymotrypsin): significantly increased
[2]
  surface or intracellular levels of NR2B (chymotrypsin): no effects
[3]
  NR2B-adaptin association: no change
[4]
  association of NR2A with adaptin β2: increase
[5]; 25 mM ethanol, n=18, data not shown
  inhibition of EPSCs at low ethanol concentration: 24±6%
[5]; 80 mM ethanol bath applied after NVP-AAM077 0.4 μM
  effect of ethanol on the remaining portion of the NMDAR EPSCs: did not alter
[5]; after 15 min, n=6
  slowing of the weighted decay time compared to the control: 33±14%
[5]; after 30 min, n=6
  slowing of the weighted decay time compared to the control: 70±29%
[5]; [6]
  % Fast: 12.5 ± 3.1%
  τF: 34.5 ± 2.1 ms
  τS: 256.3 ± 51.8* ms
  τW: 62.2 ± 10* ms
[5]; 15 min exposure to ethanol (80 mM), n=6, listed as Ethanol
  τW: 62 ± 10 ms
[5]; [7]
  % Fast: 112.6 ± 2.0%
  τF: 42.4 ± 4.4* ms
  τS: 354.0 ± 91.1 ms
  τW: 77.8 ± 14.1* ms
[5]; 30 min exposure to ethanol (80 mM), n=6, listed as Ethanol
  τW: 78 ± 14 ms
[5]; bath application of 80 mM ethanol, n=9, data not shown
  inhibition of NMDAR-mediated EPSCs: 37±7%
[5]; bath application of ethanol in the presence of ifenprodil (3 μM)
  further decrease in remaining current: 36%
[5]; ifenprodil (3 μM) plus ethanol, n=6
  total reduction of NMDAR EPSCs: 73±7%
